Assays:
[1] = target: T1, human PPARα (Homo sapiens, UniProt Q07869); test: PPARα reporter cell assay, agonist mode; format: cell-based
T1 construct: expressed in transfected cells; host or cells: CHO
T1 sequence (Q07869 239-466 limits assumed): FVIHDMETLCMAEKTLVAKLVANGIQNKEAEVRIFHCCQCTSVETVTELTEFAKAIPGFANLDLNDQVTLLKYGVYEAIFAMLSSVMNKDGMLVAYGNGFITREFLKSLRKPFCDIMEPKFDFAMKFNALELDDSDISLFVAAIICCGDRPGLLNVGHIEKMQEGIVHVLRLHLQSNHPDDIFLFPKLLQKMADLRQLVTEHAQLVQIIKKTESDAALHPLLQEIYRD

[2] = system: Nrf2; test: Nrf2 signaling fluorescent reporter assay in human retinal epithelial cell line; format: cell-based; details: 100 and 30 μM
Protocol: The assays were carried out with a fluorescent reporter assay that utilized a human retinal epithelial cell line. The assays also included validation by RT-PCR (reverse transcription polymerase chain reaction) of Nrf2 target genes. The human retinal epithelial cell line was purchased from ATCC (American Type Cell Culture, Manassas, Va.) and was configured to function as a fluorescent reporter assay. Test solutions of each of the alpha lipoic acid, resveratrol, curcumin, EGCG, Olivol®, rutin, quercetin, and hesperetin were prepared by serial dilution. Control solutions were also prepared. Positive control solutions of a known Nrf2 agonist, L-sulphoraphane was also prepared. Each test solution was then assayed for Nrf2 signaling activity using the fluorescent reporter assay and compared to control assays. The positive control solutions were also tested.

[3] = target: T2, human PPARγ (Homo sapiens, UniProt P37231); test: PPARγ reporter cell assay, agonist mode; format: cell-based
T2 construct: expressed in transfected cells; host or cells: CHO
T2 sequence (P37231 238-503 limits assumed): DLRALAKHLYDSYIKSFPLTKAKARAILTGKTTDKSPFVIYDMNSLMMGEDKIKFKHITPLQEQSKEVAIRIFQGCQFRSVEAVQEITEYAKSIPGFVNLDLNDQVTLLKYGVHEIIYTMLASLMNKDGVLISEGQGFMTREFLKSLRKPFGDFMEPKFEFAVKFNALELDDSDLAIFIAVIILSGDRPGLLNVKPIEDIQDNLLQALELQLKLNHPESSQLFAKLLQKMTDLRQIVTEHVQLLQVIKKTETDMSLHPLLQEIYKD

[4] = system: NF-κB reporter cells (HEK293); test: Live cell multiplex read-out in the NF-κB antagonist assay; format: cell-based, human; details: 1.42 μg/ml
Protocol: Various receptor assays were carried out for test compounds corresponding to ingredients of the nutritional supplement composition. In general, the receptor assays utilized reporter cells that either expressed a native receptor or a receptor hybrid. The receptor hybrids were engineered so that the native N-terminal DNA binding domain (DBD) was replaced with a yeast Gal4 DBD. The reporter cells expressed a hybrid receptor comprising either the native receptor (Nrf2 and NF-κB) or the N-terminal Gal4 DNA binding domain fused to the ligand binding domain of the specific human nuclear receptor (PPARα, PPARδ, and PPARγ). The reporter gene (e.g., firefly luciferase) was functionally linked to either upstream receptor-specific response elements (GRE) or the Gal4 upstream activation sequence (UAS). A summary of the receptors, the reporter cells used for each particular receptor assay, and the reference compounds used to confirm performance of the receptor assays are indicated below in Table 4.
A vehicle control was prepared. […] After incubation, fluorescence was measured to determine a relative number of live cells per test well.

[5] = system: C. elegans strain CB5586; test: Phenotypic lifespan screening in C. elegans; format: in vivo; details: 0.1 and 10 mg/ml tested
Protocol: Dilutions of the test formulations were applied to individual populations of C. elegans and the lifespan of each population was monitored. Any changes in the lifespan of an individual population compared to a control population were recorded and correlated to the respective test formulation (N356 or N357) and the respective dilution (0.1 mg/ml, 1 mg/ml, and 10 mg/ml).
The N256 and N357 formulations were each prepared as individual 100 mg/ml stock solutions in dimethyl sulfoxide (DMSO). Serial dilutions of each stock solution were then prepared at 0.1 mg/ml, 1 mg/ml, and 10 mg/ml in DMSO. Control solutions of DMSO only were also prepared. Synchronous aged adult populations of C. elegans strain CB5586 worms were prepared. The CB5586 strain comprises a pharyngeal GFP (green fluorescent protein) tag and a mutation in the bus-5 gene. The pharyngeal GFP tag allows for fluorescent images of the worm populations to be taken. The mutation in the bus-5 gene causes the loss of normal cuticle antigens that permits the cuticle of the worms to become permeable to the test formulations and allow direct uptake of the test formulations to avoid interaction of the test formulations with protective mechanisms of the gut channel. Each serial dilution of each test formulation was added to a separate population of the prepared worms. The control solutions were also added to separate populations of the prepared worms. The populations of the prepared worms were then maintained on standard nematode growth media (NGM) agar plates at 20° C. with sufficient food (Escherichia coli strain OP-50).
Each worm population was then monitored by fluorescent imaging to determine the number of living and dead worms as a function of time. The fluorescent imaging was analyzed by software that recognized and counted worms based on their fluorescent intensity compared to background fluorescence. […] The ability to distinguish between living and dead worms allowed the number of living worms and a cumulative number of dead worms to be monitored against time. Worm populations from a selection of fluorescent images were manually checked to verify that the software had accurately counted the number of living and dead worms.
The counts of the living and dead worms as a function of time were then analyzed for each of the worm populations and used to prepare Kaplan-Meier survival curves and associated statistics for each of the worm populations. […] The median lifespan is shown as the length of time after the last mitotic division that 50% of the test population remains viable when compared to the control population. The maximum lifespan extension is shown as the length of time after the last mitotic division that 5% of the test population remains viable when compared to the control population.
The counts of the living and dead worms as a function of time and the Kaplan-Meier survival curves and the associated statistics were then analyzed for each of the worm populations. The analysis included determining mean and median lifespan. The analysis included a non-parametric test, the Log-Rank test, which compares two survival functions for the overall lifespan assay and provides a reliable p-value summarizing the whole experiment. The analysis also included Fisher's Exact Test that calculated the significance of survival function comparisons at multiple specific time points throughout the experiment, rather than for the overall lifespan. The results of the analysis are shown below in Tables 10-17.
Phenotypic screening was carried out as described in EXAMPLE 2 for various individual compounds of the N357 formulation. […] Alpha lipoic acid was sourced from PureBulk™ USA as a racemic mix of R and S stereoisomers and was assigned a sample number of N198. Hesperidin was sourced from Sigma Aldrich at ≥80% purity and was assigned a sample number of N347. […]

[6] = system: human NF-κB; test: NF-κB reporter cell assay, antagonist mode; format: cell-based
[7] = target: T3, human PPARδ (Homo sapiens, UniProt Q03181); test: PPARδ reporter cell assay, agonist mode; format: cell-based
T3 construct: expressed in transfected cells; host or cells: CHO
T3 sequence (Q03181 211-439 limits assumed): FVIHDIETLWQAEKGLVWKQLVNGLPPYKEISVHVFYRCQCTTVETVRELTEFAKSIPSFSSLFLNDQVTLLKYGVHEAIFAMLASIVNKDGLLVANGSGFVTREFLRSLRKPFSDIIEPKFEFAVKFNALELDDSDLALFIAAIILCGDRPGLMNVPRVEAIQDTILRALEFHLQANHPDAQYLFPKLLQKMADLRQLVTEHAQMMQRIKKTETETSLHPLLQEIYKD

[8] = target: T4, mTOR (Homo sapiens, UniProt P42345); details: cited from earlier work; for mTOR inhibition: applied to isolated cells in culture
T4 construct: host or cells: isolated cells in culture (not specified)

O=C(O)CCCCC1CCSS1 (racemic) [Alpha lipoic acid, alpha lipoic acid]
PPARα Fold-Activation ([1]; 1.42 μg/ml): 1.4
PPARα Fold-Activation ([1]; 4.25 μg/ml): 1.3
PPARα Fold-Activation ([1]; 12.7 μg/ml): 1.2
PPARα Fold-Activation ([1]; 38.23 μg/ml): 1.5
PPARα Fold-Activation ([1]; 114.70 μg/ml): 2.3
activation of Nrf2 [2]: demonstrated activation of Nrf2
PPARγ Fold-Activation ([3]; 1.42 μg/ml): 1.1
PPARγ Fold-Activation ([3]; 4.25 μg/ml): 1.1
PPARγ Fold-Activation ([3]; 12.7 μg/ml): 1.3
PPARγ Fold-Activation ([3]; 38.23 μg/ml): 1.4
PPARγ Fold-Activation ([3]; 114.70 μg/ml): 3.4
NF-κB % Live Cell [4]: 100%
effect on chronological lifespan [5]: significant positive and dose-dependent increase of chronological lifespan
NF-κB % Inhibition ([6]; 4.25 μg/ml): −0.70%
PPARδ Fold-Activation ([7]; 1.42 μg/ml): 1.5
PPARδ Fold-Activation ([7]; 4.25 μg/ml): 1.1
PPARδ Fold-Activation ([7]; 12.7 μg/ml): 0.80
PPARδ Fold-Activation ([7]; 38.23 μg/ml): 0.52
PPARδ Fold-Activation ([7]; 114.70 μg/ml): 0.29

COc1cc(/C=C/C(=O)CC(=O)/C=C/c2ccc(O)c(OC)c2)ccc1O [Curcumin, curcumin]
PPARα Fold-Activation ([1]; 0.007 μg/ml): 1.3
PPARα Fold-Activation ([1]; 0.022 μg/ml): 1.3
PPARα Fold-Activation ([1]; 0.067 μg/ml): 1.3
PPARα Fold-Activation ([1]; 0.20 μg/ml): 1.1
PPARα Fold-Activation ([1]; 0.60 μg/ml): 1.0
PPARα Fold-Activation ([1]; 1.81 μg/ml): 0.86
PPARγ Fold-Activation ([3]; 0.007 μg/ml): 1.0
PPARγ Fold-Activation ([3]; 0.022 μg/ml): 1.0
PPARγ Fold-Activation ([3]; 0.067 μg/ml): 0.95
PPARγ Fold-Activation ([3]; 0.20 μg/ml): 0.96
PPARγ Fold-Activation ([3]; 0.60 μg/ml): 0.90
PPARγ Fold-Activation ([3]; 1.81 μg/ml): 1.1
NF-κB % Inhibition ([6]; 0.007 μg/ml): −10%
NF-κB % Inhibition ([6]; 0.60 μg/ml): 30%
mTOR inhibition [8]: inhibit mTOR
mTOR inhibition, mitophagy and mitochondrial turnover [8]: inhibit mTOR, up-regulate mitophagy, and increase the rate of mitochondrial turnover
PPARδ Fold-Activation ([7]; 0.007 μg/ml): 1.2
PPARδ Fold-Activation ([7]; 0.022 μg/ml): 1.2
PPARδ Fold-Activation ([7]; 0.067 μg/ml): 1.0
PPARδ Fold-Activation ([7]; 0.20 μg/ml): 1.2
PPARδ Fold-Activation ([7]; 0.60 μg/ml): 1.3
PPARδ Fold-Activation ([7]; 1.81 μg/ml): 1.0

O=C(O[C@@H]1Cc2c(O)cc(O)cc2O[C@@H]1c1cc(O)c(O)c(O)c1)c1cc(O)c(O)c(O)c1 [EGCG, epigallocatechin gallate]
NF-κB % Inhibition ([6]; 0.033 μg/ml): 10%
NF-κB % Inhibition ([6]; 0.098 μg/ml): 18%
NF-κB % Inhibition ([6]; 0.30 μg/ml): 0.10%
NF-κB % Inhibition ([6]; 0.89 μg/ml): 8.4%
NF-κB % Inhibition ([6]; 2.67 μg/ml): −15%
NF-κB % Inhibition ([6]; 8 μg/ml): −29%
mTOR inhibition [8]: inhibit mTOR
mTOR inhibition, mitophagy and mitochondrial turnover [8]: inhibit mTOR, up-regulate mitophagy, and increase the rate of mitochondrial turnover

COc1ccc([C@@H]2CC(=O)c3c(O)cc(O)cc3O2)cc1O [Hesperetin, (S)-2,3-Dihydro-5,7-dihydroxy-2-(3-hydroxy-4-methoxyphenyl)-4H-1-benzopyran-4-one]
PPARα Fold-Activation ([1]; 0.043 μg/ml): 1.4
PPARα Fold-Activation ([1]; 0.389 μg/ml): 1.2
PPARα Fold-Activation ([1]; 1.167 μg/ml): 1.0
PPARα Fold-Activation ([1]; 3.5 μg/ml): 0.79
PPARγ Fold-Activation ([3]; 0.043 μg/ml): 1.0
PPARγ Fold-Activation ([3]; 0.389 μg/ml): 1.1
PPARγ Fold-Activation ([3]; 1.167 μg/ml): 1.1
PPARγ Fold-Activation ([3]; 3.5 μg/ml): 0.55
PPARδ Fold-Activation ([7]; 0.043 μg/ml): 1.1
PPARδ Fold-Activation ([7]; 0.389 μg/ml): 1.0
PPARδ Fold-Activation ([7]; 1.167 μg/ml): 1.1
PPARδ Fold-Activation ([7]; 3.5 μg/ml): 0.89

From patent US10632101B2, “Methods and compositions for supporting endogenous systems related to life span” (USANA Health Sciences, Inc., priority 2016, dated 2020)
